Literature values, collected in patent publication EP2654723B1, “Solid pharmaceutical dosage forms comprising tadalafil and methods of preparation thereof” (Zaklady Farmaceutyczne Polpharma SA, priority 2010, dated 2012).

Key:
[1] = at 37°C

experimental water solubility [1]: about 2 µg/mL | permeability: low permeability | BCS class (because of low solubility and low permeability): BCS class IV
Structure (SMILES): CN1CC(=O)N2[C@H](c3ccc4c(c3)OCO4)c3[nH]c4ccccc4c3C[C@@H]2C1=O [Tadalafil, (6R-trans)-6-(1,3-benzodioxol-5-yl)-2,3,6,7,12,12a-hexahydro-2-methyl-pyrazino [1', 2':1,6] pyrido[3,4-b]indole-1,4-dione]
